In ChEMBL document CHEMBL3091431, “Aminopyridyl/Pyrazinyl Spiro[indoline-3,4'-piperidine]-2-ones As Highly Selective and Efficacious c-Met/ALK Inhibitors” (ACS Med Chem Lett, 2013):
pIC50: −log10 of the molar value.

Legend:
[1] = Cmax in BALB/c mouse at 20 mg/kg, po; assay type: ADME, organism-based; parameters: dose 20 mg/kg, route oral; conditions: in vivo
Mus musculus [2] = experiment: Bioavailability in BALB/c mouse at 5 mg/kg, iv; assay type: ADME, organism-based; conditions: in vivo
[3] = AUC (0 to infinity) in BALB/c mouse at 5 mg/kg, iv; assay type: ADME, organism-based; parameters: time infinity, dose 5 mg/kg, route intravenous; conditions: plasma
[4] = Cmax in BALB/c mouse at 5 mg/kg, iv; assay type: ADME, organism-based; parameters: dose 5 mg/kg, route intravenous; conditions: in vivo
[5] = target: T1, ALK tyrosine kinase receptor (Homo sapiens, UniProt Q9UM73); assay type: cell-based
Target sequence in this assay (Q9UM73 19-1620 limits assumed): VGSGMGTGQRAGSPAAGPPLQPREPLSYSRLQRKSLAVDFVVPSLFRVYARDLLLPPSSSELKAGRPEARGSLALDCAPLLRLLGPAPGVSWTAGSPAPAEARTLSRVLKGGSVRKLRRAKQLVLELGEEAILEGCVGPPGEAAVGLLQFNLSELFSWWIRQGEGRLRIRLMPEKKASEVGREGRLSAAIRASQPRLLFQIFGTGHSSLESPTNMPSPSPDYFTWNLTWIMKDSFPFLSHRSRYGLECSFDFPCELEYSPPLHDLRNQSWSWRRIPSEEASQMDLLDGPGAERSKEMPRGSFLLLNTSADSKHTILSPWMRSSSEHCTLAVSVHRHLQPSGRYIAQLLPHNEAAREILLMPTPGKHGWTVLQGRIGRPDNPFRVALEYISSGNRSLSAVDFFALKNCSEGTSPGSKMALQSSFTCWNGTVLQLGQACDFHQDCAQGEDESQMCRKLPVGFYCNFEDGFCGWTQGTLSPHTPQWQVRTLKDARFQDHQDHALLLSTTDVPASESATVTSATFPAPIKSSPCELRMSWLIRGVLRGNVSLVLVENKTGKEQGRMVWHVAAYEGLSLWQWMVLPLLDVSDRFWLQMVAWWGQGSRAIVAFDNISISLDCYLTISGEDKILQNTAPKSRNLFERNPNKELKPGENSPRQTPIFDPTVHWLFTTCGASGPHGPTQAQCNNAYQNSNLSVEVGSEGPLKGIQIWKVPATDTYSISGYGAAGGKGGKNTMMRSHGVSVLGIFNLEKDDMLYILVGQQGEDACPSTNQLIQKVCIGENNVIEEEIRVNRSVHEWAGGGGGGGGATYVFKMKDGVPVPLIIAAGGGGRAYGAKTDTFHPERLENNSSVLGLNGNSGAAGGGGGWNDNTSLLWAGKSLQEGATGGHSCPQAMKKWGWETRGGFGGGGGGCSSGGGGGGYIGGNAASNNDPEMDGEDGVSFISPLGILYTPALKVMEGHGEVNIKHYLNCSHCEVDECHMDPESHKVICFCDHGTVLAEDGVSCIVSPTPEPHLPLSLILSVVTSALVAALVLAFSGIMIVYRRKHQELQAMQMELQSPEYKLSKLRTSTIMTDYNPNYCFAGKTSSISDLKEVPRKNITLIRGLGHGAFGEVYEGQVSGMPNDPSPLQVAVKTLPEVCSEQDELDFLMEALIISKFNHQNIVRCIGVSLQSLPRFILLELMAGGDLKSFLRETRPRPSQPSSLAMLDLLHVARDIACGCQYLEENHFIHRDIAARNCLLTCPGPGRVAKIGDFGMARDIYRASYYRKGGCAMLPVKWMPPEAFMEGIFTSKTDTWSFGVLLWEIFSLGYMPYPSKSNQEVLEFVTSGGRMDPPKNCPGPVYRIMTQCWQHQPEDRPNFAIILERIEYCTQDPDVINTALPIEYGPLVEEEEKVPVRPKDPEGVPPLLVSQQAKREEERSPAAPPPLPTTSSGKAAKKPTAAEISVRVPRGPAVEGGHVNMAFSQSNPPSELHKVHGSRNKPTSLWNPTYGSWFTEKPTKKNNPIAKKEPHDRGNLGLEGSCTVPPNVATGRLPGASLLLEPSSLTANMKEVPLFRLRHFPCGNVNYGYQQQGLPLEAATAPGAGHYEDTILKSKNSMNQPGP
Description: Inhibition of NPM-fused ALK phosphorylation (unknown origin) expressed in human karpas 299 cells after 90 mins by Sandwich-ELISA

[6] = target: T1, ALK tyrosine kinase receptor; experiment: Inhibition of human ALK (unknown origin) using poly[Glu:Tyr] as substrate by nanoliter kinase assay
Target sequence in this assay (Q9UM73 whole entry): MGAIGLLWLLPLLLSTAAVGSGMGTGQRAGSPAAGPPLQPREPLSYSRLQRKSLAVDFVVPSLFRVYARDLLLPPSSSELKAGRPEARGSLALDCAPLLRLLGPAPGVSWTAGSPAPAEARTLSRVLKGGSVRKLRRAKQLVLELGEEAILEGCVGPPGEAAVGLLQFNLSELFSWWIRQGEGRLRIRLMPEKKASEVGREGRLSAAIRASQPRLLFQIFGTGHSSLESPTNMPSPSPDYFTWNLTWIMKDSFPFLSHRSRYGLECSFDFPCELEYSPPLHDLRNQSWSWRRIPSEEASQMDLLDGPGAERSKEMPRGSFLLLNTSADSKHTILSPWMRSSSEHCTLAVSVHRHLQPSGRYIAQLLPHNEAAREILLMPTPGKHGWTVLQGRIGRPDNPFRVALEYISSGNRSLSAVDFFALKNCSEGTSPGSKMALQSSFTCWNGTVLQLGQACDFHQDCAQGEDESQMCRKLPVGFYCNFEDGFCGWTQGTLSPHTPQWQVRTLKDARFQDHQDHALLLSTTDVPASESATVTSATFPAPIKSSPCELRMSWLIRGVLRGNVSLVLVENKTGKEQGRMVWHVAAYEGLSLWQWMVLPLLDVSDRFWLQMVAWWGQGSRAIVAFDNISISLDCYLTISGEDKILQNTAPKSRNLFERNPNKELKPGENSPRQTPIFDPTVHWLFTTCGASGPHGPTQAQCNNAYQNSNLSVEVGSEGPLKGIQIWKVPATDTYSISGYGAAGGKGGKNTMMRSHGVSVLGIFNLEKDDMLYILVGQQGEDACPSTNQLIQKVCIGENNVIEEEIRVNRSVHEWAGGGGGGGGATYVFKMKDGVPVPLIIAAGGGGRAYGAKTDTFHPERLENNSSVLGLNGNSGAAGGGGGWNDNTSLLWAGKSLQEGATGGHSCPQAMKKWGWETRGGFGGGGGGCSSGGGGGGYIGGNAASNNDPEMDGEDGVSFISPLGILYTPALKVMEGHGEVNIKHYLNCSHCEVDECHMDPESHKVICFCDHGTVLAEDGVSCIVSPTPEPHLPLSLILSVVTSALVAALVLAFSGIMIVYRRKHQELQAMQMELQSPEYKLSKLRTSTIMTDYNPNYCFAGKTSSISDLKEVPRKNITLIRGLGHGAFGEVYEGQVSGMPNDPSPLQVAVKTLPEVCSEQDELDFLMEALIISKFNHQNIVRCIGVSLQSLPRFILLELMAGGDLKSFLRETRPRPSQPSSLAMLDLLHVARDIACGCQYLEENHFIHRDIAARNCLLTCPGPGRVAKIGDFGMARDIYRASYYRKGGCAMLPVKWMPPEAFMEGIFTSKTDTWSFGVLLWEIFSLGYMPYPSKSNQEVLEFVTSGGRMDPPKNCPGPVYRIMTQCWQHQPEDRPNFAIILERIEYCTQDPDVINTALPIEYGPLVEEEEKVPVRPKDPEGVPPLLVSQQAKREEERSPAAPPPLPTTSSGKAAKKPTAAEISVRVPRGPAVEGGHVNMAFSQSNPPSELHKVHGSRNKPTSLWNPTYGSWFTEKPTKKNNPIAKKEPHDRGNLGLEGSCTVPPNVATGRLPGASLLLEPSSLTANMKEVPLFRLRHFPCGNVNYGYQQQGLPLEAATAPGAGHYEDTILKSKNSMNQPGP

Mus musculus [7] = experiment: Toxicity in human GTL16 cells xenografted nu/nu mouse model assessed as change in body weight at 20 mg/kg, po qd for 14 days; assay type: organism-based; parameters: dose 20 mg/kg, route oral; conditions: in vivo, 336 h
[8] = Oral bioavailability in BALB/c mouse at 20 mg/kg; assay type: ADME, organism-based; conditions: in vivo
[9] = AUC (0 to infinity) in BALB/c mouse at 20 mg/kg, po; assay type: ADME, organism-based; parameters: time infinity, dose 20 mg/kg, route oral; conditions: plasma
cells [10] = conditions: Homo sapiens, U-87 MG, 48 h
Description: Antiproliferative activity against human U87MG cells after 48 hrs by MTT assay

cells [11] = conditions: Homo sapiens, NCI-H441, 48 h
Description: Antiproliferative activity against human H441 cells after 48 hrs by MTT assay

NCI-H1993 = experiment: cells; conditions: Homo sapiens, NCI-H1993, 48 h
Description: Antiproliferative activity against human NCI-H1993 cells after 48 hrs by MTT assay

cells [12] = conditions: Homo sapiens, GTL 16, 48 h
Description: Antiproliferative activity against human GTL16 cells after 48 hrs by MTT assay

animal or person [13] = conditions: Homo sapiens, GTL 16, po, 336 h, read-out: TGI
Description: Antitumor activity against human GTL16 cells xenografted in nu/nu mouse assessed as tumor growth inhibition at 40 mg/kg, po qd for 14 days

animal or person [14] = conditions: Homo sapiens, GTL 16, po, 336 h, read-out: TGI; remark: listed apart in the source
Description: Antitumor activity against human GTL16 cells xenografted in nu/nu mouse assessed as tumor growth inhibition at 20 mg/kg, po qd for 14 days

[15] = target: Hepatocyte growth factor receptor (Homo sapiens, UniProt P08581); experiment: Inhibition of c-Met phosphorylation in human […] cells after 1 hr by western blotting; assay type: cell-based
Hepatocyte growth factor receptor, sequence (P08581 whole entry): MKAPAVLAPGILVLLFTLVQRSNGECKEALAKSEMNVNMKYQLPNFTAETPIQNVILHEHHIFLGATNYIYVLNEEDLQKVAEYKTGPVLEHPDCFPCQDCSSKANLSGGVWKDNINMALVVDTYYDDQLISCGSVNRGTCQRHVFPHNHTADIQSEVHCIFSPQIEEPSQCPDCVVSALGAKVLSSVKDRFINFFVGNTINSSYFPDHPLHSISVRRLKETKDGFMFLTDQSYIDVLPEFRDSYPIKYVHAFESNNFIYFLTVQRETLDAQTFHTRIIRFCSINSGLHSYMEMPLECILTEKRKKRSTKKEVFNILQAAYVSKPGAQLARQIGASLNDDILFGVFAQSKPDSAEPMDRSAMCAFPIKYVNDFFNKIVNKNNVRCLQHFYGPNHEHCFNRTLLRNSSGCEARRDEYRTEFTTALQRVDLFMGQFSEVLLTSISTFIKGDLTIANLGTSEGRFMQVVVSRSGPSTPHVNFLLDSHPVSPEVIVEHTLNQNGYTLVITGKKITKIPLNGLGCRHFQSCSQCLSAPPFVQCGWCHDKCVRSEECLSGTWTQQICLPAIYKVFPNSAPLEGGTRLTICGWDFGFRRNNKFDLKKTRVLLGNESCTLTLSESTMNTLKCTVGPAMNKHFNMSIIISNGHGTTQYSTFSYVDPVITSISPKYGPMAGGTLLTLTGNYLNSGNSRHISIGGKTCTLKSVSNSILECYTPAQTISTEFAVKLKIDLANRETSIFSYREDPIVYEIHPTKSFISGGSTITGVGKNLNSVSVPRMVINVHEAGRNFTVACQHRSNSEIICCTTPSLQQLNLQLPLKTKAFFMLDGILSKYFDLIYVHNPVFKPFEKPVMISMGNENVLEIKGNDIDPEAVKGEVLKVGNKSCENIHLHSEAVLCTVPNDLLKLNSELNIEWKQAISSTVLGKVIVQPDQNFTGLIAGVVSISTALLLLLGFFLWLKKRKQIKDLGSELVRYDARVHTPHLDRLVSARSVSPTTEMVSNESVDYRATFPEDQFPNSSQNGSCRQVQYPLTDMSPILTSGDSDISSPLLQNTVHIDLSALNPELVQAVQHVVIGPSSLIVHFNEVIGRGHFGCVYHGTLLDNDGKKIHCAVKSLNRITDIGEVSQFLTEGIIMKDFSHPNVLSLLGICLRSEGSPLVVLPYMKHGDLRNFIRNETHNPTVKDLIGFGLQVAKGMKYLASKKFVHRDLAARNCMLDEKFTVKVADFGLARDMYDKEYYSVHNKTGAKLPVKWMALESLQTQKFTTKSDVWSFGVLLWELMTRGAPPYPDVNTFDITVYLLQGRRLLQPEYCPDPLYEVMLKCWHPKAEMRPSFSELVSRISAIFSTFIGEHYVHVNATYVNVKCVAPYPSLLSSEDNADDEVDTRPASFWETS

| Structure (SMILES) | Cmax [1] [nM] | F (Mus musculus [2]) [%] | AUC(0-inf) [3] [ng·h/mL] | Cmax [4] [nM] | pIC50 [5] | pIC50 [6] | Activity (Mus musculus [7]) | bioavailability [8] [%] | AUC(0-inf) [9] [ng·h/mL] | pIC50 (cells [10]) | pIC50 (cells [11]) | pIC50 (NCI-H1993) | pIC50 (cells [12]) | inhibition in vivo at 40 mg/kg (animal or person [13]) [%] | inhibition in vivo at 20 mg/kg (animal or person [14]) [%] | pIC50 [15] |
| --- | --- | --- | --- | --- | --- | --- | --- | --- | --- | --- | --- | --- | --- | --- | --- | --- |
| C[C@@H](Oc1cc(-c2ccc3c(c2)NC(=O)C32CCN(C)CC2)cnc1N)c1c(Cl)ccc(F)c1Cl | 1450 | 100 | 1230 | 1360 | 7.41 | > 9.30 | Non-toxic | 48 | 2350 | < 5.00 | 5.55 | 5.80 | 7.70 | 87 | 52 | – |
| CN1CCC2(CC1)C(=O)Nc1ccc(-c3cnc(N)c(OCc4c(Cl)ccc(F)c4Cl)c3)cc12 | – | – | – | – | – | – | – | – | – | – | – | – | – | – | – | < 5.00 |
